The supplement of paper PMC11208160

Experiment: recombinant UMI read abundance after kanamycin selection (control-corrected) (log10(CPM+1)); higher = more efficient recombination; extreme values may be limits of the assay; sequences stand for … in AGTGCAGAGAAAATCGGCCAGTTTTCTCTGCCTGCAGTCCGCATGCCGTGGGACCCCTTGGGTTCTAACCTGTTGCCTAGATTTATGCAGCGGACTGCCTTTCTCCCAAAGTGATAAACCGG…AGGTTGGTTTCACT; site = the 11-nt donor
Method in brief: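 Reported values are log10(CPM+1) from a pooled Escherichia coli screen of donor and donor-binding-loop pairs for the IS621 bridge recombinase. Selection used IPTG (0.07 mM) plus kanamycin, against unselected plating, each in two replicates. Recombinant UMIs were amplified across the donor–target junction, sequenced, converted to CPM, averaged over replicates and scaled by control-derived factors.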
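Also: IS621 bridge recombinase in Escherichia coli cells against a fixed T5 target plasmid.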

Row | Sequence | recombinant UMI read abundance (log10)
1 | TGTACTCCATGGACCGGTTTTCCCGGTAATCCGTATTTGAC (site TGTACGCCTGT) | 0
2 | TGTACTCCATGGACCGGTTTTCCCGGTAATCCGTATTTGAC (site TGTACTCCTGT) | 0
3 | TGTAGTGCATGGACCGGTTTTCCCGGTAATCCGTATTTGCG (site TGTAGTGCTCG) | 0.963
4 | TGTCCCCCATGGACCGGTTTTCCCGGTAATCCGTATTTGTA (site TGTACCCCTTA) | 0.013
5 | TGTCCCCCATGGACCGGTTTTCCCGGTAATCCGTATTTGTA (site TGTCCCCCTTA) | 0.0699
6 | TGTCCCCCATGGACCGGTTTTCCCGGTAATCCGTATTTGTA (site TGTGCCCCTTA) | 0.0174
7 | TGTCCCCCATGGACCGGTTTTCCCGGTAATCCGTATTTGTA (site TGTTCCCCTTA) | 0.0128
8 | TGTCTAACATGGACCGGTTTTCCCGGTAATCCGTATTTGGC (site TGTCTAACTGC) | 0.011
9 | TGTCTATCATGGACCGGTTTTCCCGGTAATCCGTATTTGAC (site TGTCTATCTGT) | 0
10 | TGTGATACATGGACCGGTTTTCCCGGTAATCCGTATTTGCC (site TGTGATACTGG) | 0
11 | TGTGATTCATGGACCGGTTTTCCCGGTAATCCGTATTTGTG (site TGTGATTCTCA) | 0.304
12 | TGTGCAGCATGGACCGGTTTTCCCGGTAATCCGTATTTGGT (site TGTGCAGCTAC) | 0.0104
13 | TGTGCGTCATGGACCGGTTTTCCCGGTAATCCGTATTTGGT (site TGTGCGTCTAC) | 0.348
14 | TGTGGAGCATGGACCGGTTTTCCCGGTAATCCGTATTTGGC (site TGTGGAGCTGC) | 1.6
15 | TGTGGTACATGGACCGGTTTTCCCGGTAATCCGTATTTGGC (site TGTGGTACTGC) | 0.698
16 | TGTGTAACATGGACCGGTTTTCCCGGTAATCCGTATTTGGG (site TGTGTAACTCC) | 0.0344
17 | TGTGTATCATGGACCGGTTTTCCCGGTAATCCGTATTTGAT (site TGTGTATCTAT) | 0.398
18 | TGTTATACATGGACCGGTTTTCCCGGTAATCCGTATTTGCA (site TGTTATACTTG) | 1.64
19 | TGTTCAGCATGGACCGGTTTTCCCGGTAATCCGTATTTGTA (site TGTTCAGCTTA) | 0.141
20 | TGTTCCACATGGACCGGTTTTCCCGGTAATCCGTATTTGTA (site TGTTCCACTTA) | 0.225
21 | TGTTCCACATGGACCGGTTTTCCCGGTAATCCGTATTTGTA (site TGTTCCCCTTA) | 0.00983
22 | TGTTCCACATGGACCGGTTTTCCCGGTAATCCGTATTTGTA (site TGTTCCGCTTA) | 0.0123
23 | TGTTCCACATGGACCGGTTTTCCCGGTAATCCGTATTTGTA (site TGTTCCTCTTA) | 0.0149
24 | TGTTCCGCATGGACCGGTTTTCCCGGTAATCCGTATTTGGC (site TGTTCCGCTGC) | 0.484
25 | TGTTCCTCATGGACCGGTTTTCCCGGTAATCCGTATTTGTA (site TGTTCCACTTA) | 0.0142

Row | Sequence | recombinant UMI read abundance (log10)
26 | TGTTCCTCATGGACCGGTTTTCCCGGTAATCCGTATTTGTA (site TGTTCCCCTTA) | 0.00558
27 | TGTTCCTCATGGACCGGTTTTCCCGGTAATCCGTATTTGTA (site TGTTCCGCTTA) | 0
28 | TGTTCCTCATGGACCGGTTTTCCCGGTAATCCGTATTTGTA (site TGTTCCTCTTA) | 1.06
29 | TGTTCGCCATGGACCGGTTTTCCCGGTAATCCGTATTTGTA (site TGTTCACCTTA) | 0
30 | TGTTCGCCATGGACCGGTTTTCCCGGTAATCCGTATTTGTA (site TGTTCCCCTTA) | 0.0392
31 | TGTTCGCCATGGACCGGTTTTCCCGGTAATCCGTATTTGTA (site TGTTCGCCTTA) | 0.0127
32 | TGTTCGCCATGGACCGGTTTTCCCGGTAATCCGTATTTGTA (site TGTTCTCCTTA) | 0
33 | TGTTTCCCATGGACCGGTTTTCCCGGTAATCCGTATTTGTA (site TGTTACCCTTA) | 0.139
34 | TGTTTCCCATGGACCGGTTTTCCCGGTAATCCGTATTTGTA (site TGTTCCCCTTA) | 0.0148
35 | TGTTTCCCATGGACCGGTTTTCCCGGTAATCCGTATTTGTA (site TGTTGCCCTTA) | 0.0291
36 | TGTTTCCCATGGACCGGTTTTCCCGGTAATCCGTATTTGTA (site TGTTTCCCTTA) | 0.152
37 | TGTTTGGCATGGACCGGTTTTCCCGGTAATCCGTATTTGCT (site AGTTTGGCTAG) | 0
38 | TGTTTGGCATGGACCGGTTTTCCCGGTAATCCGTATTTGCT (site CGTTTGGCTAG) | 0.00328
39 | TGTTTGGCATGGACCGGTTTTCCCGGTAATCCGTATTTGCT (site GGTTTGGCTAG) | 0.0409
40 | TGTTTGGCATGGACCGGTTTTCCCGGTAATCCGTATTTGCT (site TGTTTGGCTAG) | 0
41 | TTAATTTCATGGACCGGTTTTCCCGGTAATCCGTATTTGAA (site TTAATTTCTTT) | 0
42 | TTACCTGCATGGACCGGTTTTCCCGGTAATCCGTATTTGTG (site TTAACTGCTCA) | 0.013
43 | TTACCTGCATGGACCGGTTTTCCCGGTAATCCGTATTTGTG (site TTACCTGCTCA) | 0.0157
44 | TTACCTGCATGGACCGGTTTTCCCGGTAATCCGTATTTGTG (site TTAGCTGCTCA) | 0.00404
45 | TTACCTGCATGGACCGGTTTTCCCGGTAATCCGTATTTGTG (site TTATCTGCTCA) | 0.00944
46 | TTACGTCCATGGACCGGTTTTCCCGGTAATCCGTATTTGGT (site TTACGTCCTAC) | 0.02
47 | TTACTGACATGGACCGGTTTTCCCGGTAATCCGTATTTGCC (site GGTTATCCTTC) | 0.00491
48 | TTAGAGACATGGACCGGTTTTCCCGGTAATCCGTATTTGCG (site TAAGAGACTCG) | 0.923
49 | TTAGAGACATGGACCGGTTTTCCCGGTAATCCGTATTTGCG (site TCAGAGACTCG) | 1.03
50 | TTAGAGACATGGACCGGTTTTCCCGGTAATCCGTATTTGCG (site TGAGAGACTCG) | 0.02

Row | Sequence | recombinant UMI read abundance (log10)
51 | TTAGAGACATGGACCGGTTTTCCCGGTAATCCGTATTTGCG (site TTAGAGACTCG) | 2.16
52 | TTAGATGCATGGACCGGTTTTCCCGGTAATCCGTATTTGCC (site TTAGATGCTGG) | 1.9
53 | TTAGCAGCATGGACCGGTTTTCCCGGTAATCCGTATTTGCC (site TTAGCAGCTGG) | 2.61
54 | TTAGCAGCATGGACCGGTTTTCCCGGTAATCCGTATTTGTG (site TTAGCAGCTCA) | 0.707
55 | TTAGCAGCATGGACCGGTTTTCCCGGTAATCCGTATTTGTG (site TTAGCCGCTCA) | 0.0121
56 | TTAGCAGCATGGACCGGTTTTCCCGGTAATCCGTATTTGTG (site TTAGCGGCTCA) | 0.0104
57 | TTAGCAGCATGGACCGGTTTTCCCGGTAATCCGTATTTGTG (site TTAGCTGCTCA) | 0.00315
58 | TTAGCGGCATGGACCGGTTTTCCCGGTAATCCGTATTTGCT (site TTAGCGGCTAG) | 1.71
59 | TTAGCGGCATGGACCGGTTTTCCCGGTAATCCGTATTTGCT (site TTCGCGGCTAG) | 0
60 | TTAGCGGCATGGACCGGTTTTCCCGGTAATCCGTATTTGCT (site TTGGCGGCTAG) | 0
61 | TTAGCGGCATGGACCGGTTTTCCCGGTAATCCGTATTTGCT (site TTTGCGGCTAG) | 0
62 | TTAGCTGCATGGACCGGTTTTCCCGGTAATCCGTATTTGGG (site TTAGCTGCTCA) | 0
63 | TTAGCTGCATGGACCGGTTTTCCCGGTAATCCGTATTTGGG (site TTAGCTGCTCC) | 0.0113
64 | TTAGCTGCATGGACCGGTTTTCCCGGTAATCCGTATTTGGG (site TTAGCTGCTCG) | 0.0143
65 | TTAGCTGCATGGACCGGTTTTCCCGGTAATCCGTATTTGGG (site TTAGCTGCTCT) | 0
66 | TTAGCTGCATGGACCGGTTTTCCCGGTAATCCGTATTTGTG (site ATAGCTGCTCA) | 0.183
67 | TTAGCTGCATGGACCGGTTTTCCCGGTAATCCGTATTTGTG (site CTAGCTGCTCA) | 0.221
68 | TTAGCTGCATGGACCGGTTTTCCCGGTAATCCGTATTTGTG (site GTAGCTGCTCA) | 0.0161
69 | TTAGCTGCATGGACCGGTTTTCCCGGTAATCCGTATTTGTG (site TAAGCTGCTCA) | 0.00653
70 | TTAGCTGCATGGACCGGTTTTCCCGGTAATCCGTATTTGTG (site TCAGCTGCTCA) | 0.0262
71 | TTAGCTGCATGGACCGGTTTTCCCGGTAATCCGTATTTGTG (site TGAGCTGCTCA) | 0.0117
72 | TTAGCTGCATGGACCGGTTTTCCCGGTAATCCGTATTTGTG (site TTAACTGCTCA) | 0.0107
73 | TTAGCTGCATGGACCGGTTTTCCCGGTAATCCGTATTTGTG (site TTACCTGCTCA) | 0.00862
74 | TTAGCTGCATGGACCGGTTTTCCCGGTAATCCGTATTTGTG (site TTAGATGCTCA) | 0.0477
75 | TTAGCTGCATGGACCGGTTTTCCCGGTAATCCGTATTTGTG (site TTAGCAGCTCA) | 0.00587
